Structures can show the parent of a compound that is named as a salt.
Legend:
[1] = target: T1, pseudo-kinase domain (JH2, amino-acids 536-812) of human Wild Type JAK2 (Homo sapiens, UniProt O60674, F794H/W659A/W777A); test: JAK2 LanthaScreen JH2-WT Binding Assay; settings: 1 hour at 25° C.
T1 construct: pseudo-kinase domain (JH2, amino-acids 536-812 with 3 surface mutations W659A, W777A, F794H); purchased BPS Bioscience 79463; host or cells: baculovirus expression system
Procedure: Example B. JAK2 LanthaScreen JH2-WT Binding Assay
(§1) JAK2 JH2-WT binding assay utilizes pseudo-kinase domain (JH2, amino-acids 536-812 with 3 surface mutations W659A, W777A, F794H) of human Wild Type JAK2 expressed as C-terminal His-Avi-tagged, biotinylated protein in a baculovirus expression system (BPS Bioscience, Catalog #79463). The assay was conducted in black 384-well polystyrene plates in a final reaction volume of 20 μL. JAK2 JH2-WT (0.145 nM) was incubated with compounds (100 nL serially diluted in DMSO) in the presence of 50 nM Fluorescent JAK2-JH2 Tracer (MedChem Express Catalog #HY-102055) and 0.25 nM Streptavidin-Tb cryptate (Cisbio Part #610SATLB) in assay buffer (50 mM Tris, pH=7.5, 10 mM MgCl2, 0.01% Brij-35, 0.1% BSA, 1 mM EGTA, 5% Glycerol and 5 mM DTT). Non-specific binding was accessed in the presence of 2 mM ATP. After incubation for 1 hour at 25° C., LanthaScreen signals were read on a PHERAstar FS plate reader (BMG LABTECH). Data was analyzed with IDBS XLfit and GraphPad Prism 5.0 software using a four parameter dose response curve to determine IC50 for each compound.

[2] = target: T2, pseudo-kinase domain (JH2, amino-acids 536-812) of human V617F mutant JAK2 (Homo sapiens, UniProt O60674, F794H/V617F/W659A/W777A); test: JAK2 LanthaScreen JH2-V617F Binding Assay; settings: 1 hour at 25° C.
T2 construct: pseudo-kinase domain (JH2, amino-acids 536-812 with 3 surface mutations W659A, W777A, F794H); purchased BPS Bioscience 79498; host or cells: baculovirus expression system
Procedure: Example C. JAK2 LanthaScreen JH2-V617F Binding Assay
as §1, with “JH2-V617F” for “JH2-WT”, “V617F mutant” for “Wild Type”, “#79498).” for “#79463).”, “JH2-V617F (0.26” for “JH2-WT (0.145”

[3] = target: T3, catalytic domain (JH1, amino acids 826-1132) of human JAK2 (Homo sapiens, UniProt O60674); test: JAK2 LanthaScreen JH1 Binding Assay; settings: 2 hours at 25° C.
T3 construct: catalytic domain (JH1, amino acids 826-1132) of human JAK2; purchased Carna Biosciences 08-445-20N; host or cells: baculovirus expression system
Procedure: Example A. JAK2 LanthaScreen JH1 Binding Assay
JAK2 JH1 binding assay utilizes catalytic domain (JH1, amino acids 826-1132) of human JAK2 expressed as N-terminal FLAG-tagged, biotinylated protein in a baculovirus expression system (Carna Biosciences, Product #08-445-20N). The assay was conducted in black 384-well polystyrene plates in a final reaction volume of 20 μL. JAK2 JH1 (1.5 nM) was incubated with compounds (100 nL serially diluted in DMSO) in the presence of 50 nM Fluorescent JAK2-JH1 Tracer and 0.5 nM Streptavidin-Tb cryptate (Cisbio Part #610SATLB) in assay buffer (50 mM Tris, pH=7.5, 10 mM MgCl2, 0.01% Brij-35, 0.1% BSA, 1 mM EGTA, 5% Glycerol and 5 mM DTT). Non-specific binding was accessed in the presence of 2 mM ATP. After incubation for 2 hours at 25° C., LanthaScreen signals were read on a PHERAstar FS plate reader (BMG LABTECH). Data was analyzed with IDBS XLfit and GraphPad Prism 5.0 software using a four parameter dose response curve to determine IC50 for each compound.

T2 sequence (O60674 536-812 V617F/W659A/W777A/F794H): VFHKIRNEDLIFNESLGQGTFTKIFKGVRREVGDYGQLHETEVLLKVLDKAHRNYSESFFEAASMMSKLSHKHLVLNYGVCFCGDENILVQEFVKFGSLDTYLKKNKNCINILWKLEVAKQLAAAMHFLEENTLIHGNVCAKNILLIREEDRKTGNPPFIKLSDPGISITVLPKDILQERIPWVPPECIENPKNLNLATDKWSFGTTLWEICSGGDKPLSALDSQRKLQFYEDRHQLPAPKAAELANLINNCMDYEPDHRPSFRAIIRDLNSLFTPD
T3 sequence (O60674 826-1132): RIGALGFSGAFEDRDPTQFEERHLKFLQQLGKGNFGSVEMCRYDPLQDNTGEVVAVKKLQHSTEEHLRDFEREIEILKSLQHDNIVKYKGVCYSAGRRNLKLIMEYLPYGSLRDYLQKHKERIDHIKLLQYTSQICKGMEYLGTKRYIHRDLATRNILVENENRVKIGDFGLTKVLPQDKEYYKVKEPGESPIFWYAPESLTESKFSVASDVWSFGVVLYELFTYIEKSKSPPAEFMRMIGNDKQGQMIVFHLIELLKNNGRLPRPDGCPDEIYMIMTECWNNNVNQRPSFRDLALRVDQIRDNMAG
T1 sequence (O60674 536-812 W659A/W777A/F794H): as the sequence (O60674 536-812 V617F/W659A/W777A/F794H) above, with F82V counted along it

| Molecule | IC50 [1] | IC50 [2] | IC50 [3] |
| --- | --- | --- | --- |
| 1-(Ethylsulfonyl)-2″-(3-methoxy-1-methyl-1H-pyrazol-4-yl)-6″-methyl-1″-(1-(methyl-d3)-1H-indazol-5-yl)-3″,6″-dihydro-7″H-dispiro[azetidine-3,1′-cyclobutane-3′,8″-dipyrrolo[2,3-b:3′,2′-d]pyridin]-7″-one, trifluoroacetate salt [Example 99] | ≤ 100 nM | ≤ 100 nM | > 2500 nM |
| [2H]C([2H])([2H])n1ncc2cc(-c3c(-c4cnn(C)c4)[nH]c4ncc5c(c34)[C@@]3(CC[C@H](NC(=O)C4(CC(N)=O)CCC4)C3)C(=O)N5C)ccc21 (racemic) [Example 100, trifluoroacetate salt] | 500 to 1250 nM | 500 to 1250 nM | > 2500 nM |
| O=C(O)C(F)(F)F.[2H]C([2H])([2H])n1ncc2cc(-c3c(-c4cnn5c4OCCC5)[nH]c4ncc5c(c34)C3(CC4(CN(S(=O)(=O)CC)C4)C3)C(=O)N5C)ccc21 [Example 98, 2″-(6,7-Dihydro-5H-pyrazolo[5,1-b][1,3]oxazin-3-yl)-1-(ethylsulfonyl)-6″-methyl-1″-(1-(methyl-d3)-1H-indazol-5-yl)-3″,6″-dihydro-7″H-dispiro[azetidine-3,1′-cyclobutane-3′,8″-dipyrrolo[2,3-b:3′,2′-d]pyridin]-7″-one, trifluoroacetate salt] | ≤ 100 nM | ≤ 100 nM | > 2500 nM |
| O=C(O)C(F)(F)F.[2H]C([2H])([2H])n1ccc(-c2[nH]c3ncc4c(c3c2-c2ccc3c(cnn3C)c2)C2(CC3(CCN(C(=O)CCC)CC3)C2)C(=O)N4C)c1 [Example 101, 1″-Butyryl-6-methyl-1-(1-methyl-1H-indazol-5-yl)-2-(1-(methyl-d3)-1H-pyrrol-3-yl)-3,6-dihydro-7H-dispiro[dipyrrolo[2,3-b:3′,2′-d]pyridine-8,1′-cyclobutane-3′,4″-piperidin]-7-one, trifluoroacetate salt] | ≤ 100 nM | ≤ 100 nM | 1250 to 2500 nM |
| O=C(O)C(F)(F)F.[2H]C([2H])([2H])n1ccc(-c2[nH]c3ncc4c(c3c2-c2ccc3c(cnn3C([2H])([2H])[2H])c2)C2(CC3(CCN(C(=O)CCC)CC3)C2)C(=O)N4C)c1 [Example 102, 1″-Butyryl-6-methyl-1-(1-(methyl-d3)-1H-indazol-5-yl)-2-(1-(methyl-d3)-1H-pyrrol-3-yl)-3,6-dihydro-7H-dispiro[dipyrrolo[2,3-b:3′,2′-d]pyridine-8,1′-cyclobutane-3′,4″-piperidin]-7-one, trifluoroacetate salt] | ≤ 100 nM | ≤ 100 nM | > 2500 nM |

Source: patent US11958861B2, “Spirocyclic lactams as JAK2 V617F inhibitors” (Incyte Corporation, priority 2021, dated 2024)
